These results are taken from patent US8940897B2, “1,3,4-oxadiazole and 1,3,4-thiadiazole β-lactamase inhibitors” (priority 2012, dated 2015).

Where a name gives a salt, the structure may show the parent alone.

For assay [1], the system named is bacterial strains that express KPC β-lactamases. Put plainly: Synergy MIC / standard BLI potentiation MIC assay, strains expressing KPC β-lactamases. It is filed as cell-based. The following applies: for at least one KPC strain and/or a better spectrum of activity against KPC strains than Avibactam; in the presence of a β-lactam. As for the experimental part:
Unless otherwise indicated, the activity of the BLI compounds can be described by the MIC value obtained from a Synergy MIC assay or a BLI potentiation assay (e.g as described herein), both of which are run in the presence of a β-lactam.
The experimental protocol was performed according to Clinical and Laboratory Standards Institute (CLSI) guidelines with modifications as described below (CLSI guidelines can be derived from the CLSI document M07-A9 published in January 2012: “Methods for Dilution Antimicrobial Susceptibility Tests for Bacteria That Grow Aerobically; Approved Standard-Ninth Edition”).
To prepare for MIC testing, frozen glycerol stocks of clinical isolates (Klebsiella pneumoniae, Eschericia coli, Enterobacter spp, Citrobacter spp, or Pseudomonas aeruginosa) were used to streak for isolated colonies on rich, non-selective, tryptic soy agar containing 5% sheep's blood (TSAB). Frozen glycerol stocks of laboratory engineered, isogenic E. coli strains, which contain cloned β-lactamase expressing plasmids were used to streak for isolated colonies on rich, selective LB agar supplemented with 25 μg/mL tetracycline to maintain the plasmid. All strains were incubated at 37° C. for 18-24 hrs.
On the day of testing, primary cultures were started by scraping off 5-10 colonies from the TSAB plates containing clinical strains or the tetracycline supplemented LB plates containing engineered strains. The clinical strain material was suspended in ˜5 mL of cation adjusted Mueller Hinton Broth (CAMHB) in 14 mL culture tubes. The engineered strain material was suspended in CAMHB (supplemented with 25 μg/mL tetracycline) in 14 mL culture tubes. All strains were incubated at 37° C. with aeration (200 rpm) for ˜2 hrs until the optical density at 600 nm (OD600) was ≧0.1.
The two compound components of the assay were each diluted in CAMHB and added to the 96-well broth microdilution assay plates. 50 μL of the β-lactam was added to each well of the assay plate in 2-fold dilutions with final concentrations ranging from 128 to 0.13 μg/mL. 25 μL of the BLI compound was added to all wells in the broth microdilution plates at a final concentration of 4 μg/mL. Inoculum cultures were prepared by standardizing the primary cultures to OD600=0.1 and then adding 20 μL of the adjusted primary culture per 1 mL CAMHB for clinical strains or CAMHB (supplemented with tetracycline at 100 μg/mL) for engineered strains, so that the final inoculum density was ˜10^5 colony forming units per milliliter. Diluted inoculum cultures were used to inoculate 25 μl, per well in 96-well broth microdilution assay plates. The final volume of each well was 100 μL and contained a β-lactam at different concentrations, a BLIcompound at 4 μg/mL concentration, the bacterial culture at an OD600 of approximately 0.001 and when necessary tetracycline at 25 μg/mL.
Plates were incubated for 18-20 hours at 37° C. with aeration (200 rpm). Following incubation, growth was confirmed visually placing plates over a viewing apparatus (stand with a mirror underneath) and then OD600 was measured using a SpectraMax 340PC384 plate reader (Molecular Devices, Sunnyvale, Calif.). Growth was defined as turbidity that could be detected with the naked eye or achieving minimum OD600 of 0.1. MIC values were defined as the lowest concentration producing no visible turbidity.
The synergy MIC (sMIC) assay determines the concentration of the BLI required to potentiate the activity of a fixed concentration of a β-lactam antibiotic against β-lactamase producing bacterial strains. The experimental protocol was performed according to Clinical and Laboratory Standards Institute (CLSI) guidelines with modifications as described below (CLSI guidelines can be derived from the CLSI document M07-A9 published in January 2012: “Methods for Dilution Antimicrobial Susceptibility Tests for Bacteria That Grow Aerobically; Approved Standard-Ninth Edition”). […]

The test system of assay [2] is bacterial strains that express the class D cephalosporinase OXA-15. Put plainly: Synergy MIC / standard BLI potentiation MIC assay, strains expressing OXA-15.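 Note: more active means a lower MIC or sMIC than Avibactam.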 Type of assay: cell-based, E. coli. Conditions: in the presence of a β-lactam; comparator Avibactam (CCC). The procedure, abridged:
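CLSI broth microdilution in CAMHB, ~10^5 CFU/mL, 18–20 h at 37 °C with aeration; engineered E. coli kept on 25 μg/mL tetracycline. Potentiation: β-lactam 128–0.13 μg/mL with BLI fixed at 4 μg/mL; synergy MIC: BLI serially diluted with fixed β-lactam. MIC is the lowest concentration without visible turbidity.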

Regarding `O=C1N2C[C@@H](CC[C@H]2c2nnc(CCCC3CNC3)o2)N1OS(=O)(=O)O` [Compound 743, (2S,5R)-2-(5-(3-(azetidin-3-yl)propyl)-1,3,4-oxadiazol-2-yl)-7-oxo-1,6-diazabicyclo[3.2.1]octan-6-yl hydrogen sulfate], in assay [1], the “activity against bacterial strains that express KPC β-lactamase compared with Avibactam” value was “more active than Avibactam”. Besides, in assay [2], the “activity against bacterial strains that express OXA-15 β-lactamase compared with Avibactam” value is “more active than Avibactam”.
`O=C1N2C[C@@H](CC[C@H]2c2nnc(COC3CNC3)o2)N1OS(=O)(=O)O` [Compound 744, (2S,5R)-2-(5-((azetidin-3-yloxy)methyl)-1,3,4-oxadiazol-2-yl)-7-oxo-1,6-diazabicyclo[3.2.1]octan-6-yl hydrogen sulfate]: in assay [1], the “activity against bacterial strains that express KPC β-lactamase compared with Avibactam” value was “more active than Avibactam”. Moreover, the “activity against bacterial strains that express OXA-15 β-lactamase compared with Avibactam” value in assay [2] is reported as “more active than Avibactam”.
On to `O=C1N2C[C@@H](CC[C@H]2c2nnc(CCNC3CNC3)o2)N1OS(=O)(=O)O` [Compound 745, (2S,5R)-2-(5-(2-(azetidin-3-ylamino)ethyl)-1,3,4-oxadiazol-2-yl)-7-oxo-1,6-diazabicyclo[3.2.1]octan-6-yl hydrogen sulfate], for which the “activity against bacterial strains that express KPC β-lactamase compared with Avibactam” value in assay [1] is “more active than Avibactam”. In addition, in assay [2], the “activity against bacterial strains that express OXA-15 β-lactamase compared with Avibactam” value was “more active than Avibactam”.
Regarding `N=C(N)N1CC(NCc2nnc([C@@H]3CC[C@@H]4CN3C(=O)N4OS(=O)(=O)O)o2)C1` [Compound 746, (2S,5R)-2-(5-(((1-carbamimidoylazetidin-3-yl)amino)methyl)-1,3,4-oxadiazol-2-yl)-7-oxo-1,6-diazabicyclo[3.2.1]octan-6-yl hydrogen sulfate], the “activity against bacterial strains that express KPC β-lactamase compared with Avibactam” value in assay [1] was “more active than Avibactam”. Besides, the “activity against bacterial strains that express OXA-15 β-lactamase compared with Avibactam” value in assay [2] is given as “more active than Avibactam”.
For the compound `N=C(N)N[C@H]1C[C@@H](c2nnc([C@@H]3CC[C@@H]4CN3C(=O)N4OS(=O)(=O)O)o2)C1` [Compound 749, (2S,5R)-2-(5-((1s,3R)-3-guanidinocyclobutyl)-1,3,4-oxadiazol-2-yl)-7-oxo-1,6-diazabicyclo[3.2.1]octan-6-yl hydrogen sulfate], in assay [1], the “activity against bacterial strains that express KPC β-lactamase compared with Avibactam” value is reported as “more active than Avibactam”. Further, the “activity against bacterial strains that express OXA-15 β-lactamase compared with Avibactam” value in assay [2] is recorded as “more active than Avibactam”.
For `O=C1N2C[C@@H](CC[C@H]2c2nnc(C3CC4(CNC4)C3)o2)N1OS(=O)(=O)O` [Compound 750, (2S,5R)-2-(5-(2-azaspiro[3.3]heptan-6-yl)-1,3,4-oxadiazol-2-yl)-7-oxo-1,6-diazabicyclo[3.2.1]octan-6-yl hydrogen sulfate], in assay [1], the “activity against bacterial strains that express KPC β-lactamase compared with Avibactam” value is “more active than Avibactam”. Further, the “activity against bacterial strains that express OXA-15 β-lactamase compared with Avibactam” value in assay [2] is given as “more active than Avibactam”.
Take `N[C@H]1C[C@H](Cc2nnc([C@@H]3CC[C@@H]4CN3C(=O)N4OS(=O)(=O)O)o2)C1` [Compound 751, (2S,5R)-2-(5-(((1r,3S)-3-aminocyclobutyl)methyl)-1,3,4-oxadiazol-2-yl)-7-oxo-1,6-diazabicyclo[3.2.1]octan-6-yl hydrogen sulfate]: the “activity against bacterial strains that express KPC β-lactamase compared with Avibactam” value in assay [1] is “more active than Avibactam”. Moreover, the “activity against bacterial strains that express OXA-15 β-lactamase compared with Avibactam” value in assay [2] is on record as “more active than Avibactam”.
Take `N=C(N)NC1CC(Cc2nnc([C@@H]3CC[C@@H]4CN3C(=O)N4OS(=O)(=O)O)o2)C1` (stereo partly drawn) [Compound 752, (2S,5R)-2-(5-((3-guanidinocyclobutyl)methyl)-1,3,4-oxadiazol-2-yl)-7-oxo-1,6-diazabicyclo[3.2.1]octan-6-yl hydrogen sulfate]: in assay [1], the “activity against bacterial strains that express KPC β-lactamase compared with Avibactam” value is on record as “more active than Avibactam”. Also, the “activity against bacterial strains that express OXA-15 β-lactamase compared with Avibactam” value in assay [2] is reported as “more active than Avibactam”.
